Measured values from patent US10933063B2 (priority 2017, dated 2021).

Molecular target: BTK (Homo sapiens (Human), UniProt Q06187)
Experiment: biochemical

Chain of BTK (Q06187 whole entry, looked up, species assumed): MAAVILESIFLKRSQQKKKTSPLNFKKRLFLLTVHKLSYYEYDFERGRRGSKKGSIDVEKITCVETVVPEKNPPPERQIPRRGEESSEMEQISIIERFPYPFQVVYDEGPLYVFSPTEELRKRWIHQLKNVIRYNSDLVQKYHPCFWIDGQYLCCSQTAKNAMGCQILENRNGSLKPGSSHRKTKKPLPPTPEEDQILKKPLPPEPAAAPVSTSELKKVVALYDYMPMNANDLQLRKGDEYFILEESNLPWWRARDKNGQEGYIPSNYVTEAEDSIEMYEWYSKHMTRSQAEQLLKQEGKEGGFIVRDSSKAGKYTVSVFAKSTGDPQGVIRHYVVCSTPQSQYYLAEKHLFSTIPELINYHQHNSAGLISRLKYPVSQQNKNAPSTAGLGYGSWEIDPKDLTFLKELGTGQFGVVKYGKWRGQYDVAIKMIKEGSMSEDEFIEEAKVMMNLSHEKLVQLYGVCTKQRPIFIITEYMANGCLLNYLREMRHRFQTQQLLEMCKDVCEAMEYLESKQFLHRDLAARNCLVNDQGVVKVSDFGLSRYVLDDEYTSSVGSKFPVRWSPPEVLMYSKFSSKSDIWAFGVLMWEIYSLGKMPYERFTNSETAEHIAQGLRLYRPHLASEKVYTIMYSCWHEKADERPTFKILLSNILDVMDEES

Q: Which IC50 does the source give for `CC#CC(=O)N1CCC[C@H]1c1nc(-c2ccc(Oc3cccc(OC(C)C)c3)cc2)c2cnccn12` [Example 39, (S)-1-(2-(1-(4-(3-isopropoxyphenoxy)phenyl)imidazo[1,5-a]pyrazin-3-yl)pyrrolidin-1-yl)but-2-yn-1-one] here?
A: The IC50 was 100 to 1000 nM.

Q: With `CC#CC(=O)N1CCCC[C@H]1c1nc(-c2ccc(Oc3cccc(Cl)c3F)cc2)c2c(C)nccn12` [Example 43, (S)-1-(2-(1-(4-(3-chloro-2-fluorophenoxy)phenyl)-8-methylimidazo[1,5-a]pyrazin-3-yl)piperidin-1-yl)but-2-yn-1-one] as the compound, how does the IC50 read?
A: The IC50 was 10 to 100 nM.

Q: Which IC50 does the source give for `CC#CC(=O)N1CCC[C@@H](c2nc(-c3ccc(C(=O)Nc4ccccn4)cc3)c3cnccn23)C1` [Example 167, (R)-4-(3-(1-(but-2-ynoyl)piperidin-3-yl)imidazo [1,5-a]pyrazin-1-yl)-N-(pyridin-2-yl)benzamide] here?
A: Its IC50 is 1000 to 10000 nM.

Q: How did the IC50 turn out when `CC#CC(=O)N1CC[C@@H](c2nc(-c3ccc(Oc4cccc(OC)c4F)cc3)c3c(CC)nccn23)C1` [Example 107, (R)-1-(3-(8-ethyl-1-(4-(2-fluoro-3-methoxyphenoxy)phenyl)imidazo[1,5-a]pyrazin-3-yl)pyrrolidin-1-yl)but-2-yn-1-one] was run?
A: The IC50 was 10 to 100 nM.

Q: `CC#CC(=O)N1CCC[C@H]1c1nc(-c2ccc(Oc3cccc(OC)c3F)cc2)c2cncc(C)n12` [Example 63, (S)-1-(2-(1-(4-(2-fluoro-3-methoxyphenoxy)phenyl)-5-methylimidazo[1,5-a]pyrazin-3-yl)pyrrolidin-1-yl)but-2-yn-1-one] was tested. Which IC50 did it give?
A: Its IC50 is 100 to 1000 nM.

Q: Which IC50 does the source give for `CC#CC(=O)N1CC[C@@H](c2nc(-c3ccc(C(=O)Nc4ccccn4)cc3)c3c(C)ncc(OCC)n23)C1` [Example 205, (R)-4-(3-(1-(but-2-ynoyl)pyrrolidin-3-yl)-5-ethoxy-8-methylimidazo[1,5-a]pyrazin-1-yl)-N-(pyridin-2-yl)benzamide] here?
A: Its IC50 is 10 to 100 nM.

Q: For `CC#CC(=O)N1CCC[C@H]1c1nc(-c2ccc(OCc3cccc(F)c3)cc2)c2cnccn12` [Example 138, (S)-1-(2-(1-(4-((3-fluorobenzyl)oxy)phenyl)imidazo[1,5-a]pyrazin-3-yl)pyrrolidin-1-yl)but-2-yn-1-one], which IC50 is on record?
A: Its IC50 is 1000 to 10000 nM.

Q: With `C=CC(=O)N1CCCC[C@H]1c1nc(-c2ccc(Oc3cccc(OC)c3F)cc2)c2c(C(=O)OC)nccn12` [Example 66, methyl (S)-3-(1-acryloylpiperidin-2-yl)-1-(4-(2-fluoro-3-methoxyphenoxy)phenyl)imidazo[1,5-a]pyrazine-8-carboxylate] as the compound, how does the IC50 read?
A: Its IC50 is 1000 to 10000 nM.

Q: For `CC#CN1CCC[C@H]1c1nc(-c2ccc(C(=O)Nc3cc(C(F)(F)F)ccn3)cc2)c2c(CF)nccn12` [Example 209, (S)-4-(8-(fluoromethyl)-3-(1-(prop-1-yn-1-yl)pyrrolidin-2-yl)imidazo [1,5-a]pyrazin-1-yl)-N-(4-(trifluoromethyl)pyridin-2-yl)benzamide], which IC50 is on record?
A: Its IC50 is 100 to 1000 nM.

Q: For `C=CC(=O)N1CCC[C@H]1c1nc(-c2ccc(Oc3ccccc3)cc2Cl)c2cnccn12` [Example 13, (S)-1-(2-(1-(2-chloro-4-phenoxyphenyl)imidazo[1,5-a]pyrazin-3-yl)pyrrolidin-1-yl)prop-2-en-1-one], which IC50 is on record?
A: Its IC50 is 10 to 100 nM.

Q: `CC#CC(=O)N1CCC[C@H]1c1nc(-c2ccc(COc3ccccc3F)cc2)c2cnccn12` [Example 146, (S)-1-(2-(1-(4-((2-fluorophenoxy)methyl)phenyl)imidazo[1,5-a]pyrazin-3-yl)pyrrolidin-1-yl)but-2-yn-1-one] was tested. Which IC50 did it give?
A: Its IC50 is 1000 to 10000 nM.

Q: How did the IC50 turn out when `CC#CC(=O)N1CCC[C@H]1c1nc(-c2ccc(COc3ccc(F)cc3)cc2)c2cnccn12` [Example 128, (S)-1-(2-(1-(4-((4-fluorophenoxy)methyl)phenyl)imidazo[1,5-a]pyrazin-3-yl)pyrrolidin-1-yl)but-2-yn-1-one] was run?
A: Its IC50 is 1000 to 10000 nM.

Q: How did the IC50 turn out when `C=CC(=O)N1CC[C@@H](c2nc(-c3ccc(Oc4cccc(OC)c4F)cc3)c3c(C(C)C)nccn23)C1` [Example 111, (R)-1-(3-(1-(4-(2-fluoro-3-methoxyphenoxy)phenyl)-8-isopropylimidazo[1,5-a]pyrazin-3-yl)pyrrolidin-1-yl)prop-2-en-1-one] was run?
A: Its IC50 is 1000 to 10000 nM.

Q: With `C=CC(=O)N1CCC[C@H]1c1nc(-c2ccc(OCc3cccc(F)c3)cc2)c2cnccn12` [Example 135, (S)-1-(2-(1-(4-((3-fluorobenzyl)oxy)phenyl)imidazo[1,5-a]pyrazin-3-yl)pyrrolidin-1-yl)prop-2-en-1-one] as the compound, how does the IC50 read?
A: The IC50 was 10 to 100 nM.

Q: `COc1cccc(Oc2ccc(-c3nc([C@@H]4CCN(C(=O)/C(C#N)=C/C(C)(C)C)C4)n4ccnc(C)c34)cc2)c1F` [Example 88, (R,E)-2-(3-(1-(4-(2-fluoro-3-methoxyphenoxy)phenyl)-8-methylimidazo[1,5-a]pyrazin-3-yl)pyrrolidine-1-carbonyl)-4,4-dimethylpent-2-enenitrile] was tested. Which IC50 did it give?
A: The IC50 was 10 to 100 nM.

Q: How did the IC50 turn out when `CC#CC(=O)N1CC[C@@H](c2nc(-c3ccc(C(=O)Nc4ccccn4)cc3)c3cncc(OCC)n23)C1` [Example 193, (R)-4-(3-(1-(but-2-ynoyl)pyrrolidin-3-yl)-5-ethoxyimidazo[1,5-a]pyrazin-1-yl)-N-(pyridin-2-yl)benzamide] was run?
A: The IC50 was 100 to 1000 nM.

Q: `CC#CC(=O)N1CCCC[C@H]1c1nc(-c2ccc(Oc3cccc(Cl)c3F)cc2)c2cnccn12` [Example 47, (S)-1-(2-(1-(4-(3-chloro-2-fluorophenoxy)phenyl)imidazo[1,5-a]pyrazin-3-yl)piperidin-1-yl)but-2-yn-1-one] was tested. Which IC50 did it give?
A: The IC50 was 100 to 1000 nM.

Q: With `CC#CC(=O)N1CCCC[C@H]1c1nc(-c2ccc(OCc3cccc(F)c3)cc2)c2cnccn12` [Example 153, (S)-1-(2-(1-(4-((3-fluorobenzyl)oxy)phenyl)imidazo[1,5-a]pyrazin-3-yl)piperidin-1-yl)but-2-yn-1-one] as the compound, how does the IC50 read?
A: The IC50 was 1000 to 10000 nM.

Q: `CC#CC(=O)N1CCCC[C@H]1c1nc(-c2ccc(Oc3cccc(OC)c3F)cc2)c2cncc(C)n12` [Example 79, (S)-1-(2-(1-(4-(2-fluoro-3-methoxyphenoxy)phenyl)-5-methylimidazo[1,5-a]pyrazin-3-yl)piperidin-1-yl)but-2-yn-1-one] was tested. Which IC50 did it give?
A: Its IC50 is 100 to 1000 nM.

Q: How did the IC50 turn out when `CC#CC(=O)N1CCC[C@@H](c2nc(-c3ccc(C(=O)Nc4ccccn4)cc3)c3cncc(C)n23)C1` [Example 179, (R)-4-(3-(1-(but-2-ynoyl)piperidin-3-yl)-5-methylimidazo[1,5-a]pyrazin-1-yl)-N-(pyridin-2-yl)benzamide] was run?
A: The IC50 was 1000 to 10000 nM.

Q: For `C=CC(=O)N1CCCC[C@H]1c1nc(-c2ccc(COc3ccc(F)c(F)c3)cc2)c2c(C)nccn12` [Example 150, (S)-1-(2-(1-(4-((3,4-difluorophenoxy)methyl)phenyl)-8-methylimidazo[1,5-a]pyrazin-3-yl)piperidin-1-yl)prop-2-en-1-one], which IC50 is on record?
A: Its IC50 is 10 to 100 nM.

Q: With `CC#CC(=O)N1CC[C@@H](c2nc(-c3ccc(Oc4cccc(OC)c4F)cc3)c3c(COC(C)=O)nccn23)C1` [Example 118, (R)-(3-(1-(but-2-ynoyl)pyrrolidin-3-yl)-1-(4-(2-fluoro-3-methoxyphenoxy)phenyl)imidazo[1,5-a]pyrazin-8-yl)methyl acetate] as the compound, how does the IC50 read?
A: Its IC50 is 100 to 1000 nM.

Q: Which IC50 does the source give for `CC#CC(=O)N1CCC[C@@H](c2nc(-c3ccc(Oc4cccc(OC)c4)cc3)c3cnccn23)C1` [Example 52, (R)-1-(3-(1-(4-(3-methoxyphenoxy)phenyl)imidazo[1,5-a]pyrazin-3-yl)piperidin-1-yl)but-2-yn-1-one] here?
A: Its IC50 is 100 to 1000 nM.

Q: For `CC#CC(=O)N1CCCC[C@H]1c1nc(-c2ccc(OCc3cccc(F)c3)cc2)c2c(C)nccn12` [Example 140, (S)-1-(2-(1-(4-((3-fluorobenzyl)oxy)phenyl)-8-methylimidazo[1,5-a]pyrazin-3-yl)piperidin-1-yl)but-2-yn-1-one], which IC50 is on record?
A: The IC50 was 100 to 1000 nM.

Q: How did the IC50 turn out when `C=CC(=O)N1CCC[C@H]1c1nc(-c2ccc(Oc3ccccc3)c(Cl)c2)c2cnccn12` [Example 26, (S)-1-(2-(1-(3-chloro-4-phenoxyphenyl)imidazo[1,5-a]pyrazin-3-yl)pyrrolidin-1-yl)prop-2-en-1-one] was run?
A: The IC50 was 10 to 100 nM.

Q: With `C=CC(=O)N1CCC[C@H]1c1nc(-c2ccc(Oc3cccc(F)c3)cc2)c2cnccn12` [Example 11, (S)-1-(2-(1-(4-(3-fluorophenoxy)phenyl)imidazo[1,5-a]pyrazin-3-yl)pyrrolidin-1-yl)prop-2-en-1-one] as the compound, how does the IC50 read?
A: Its IC50 is 10 to 100 nM.

Q: How did the IC50 turn out when `CC#CC(=O)N1CCC[C@H]1c1nc(-c2ccc(COc3cccc(OC)c3F)cc2)c2cnccn12` [Example 160, (S)-1-(2-(1-(4-((2-fluoro-3-methoxyphenoxy)methyl)phenyl)imidazo[1,5-a]pyrazin-3-yl)pyrrolidin-1-yl)but-2-yn-1-one] was run?
A: The IC50 was 1000 to 10000 nM.

Q: With `C=CC(=O)N1CCC[C@H]1c1nc(-c2ccc(COc3ccc(F)cc3)cc2)c2cnccn12` [Example 126, (S)-1-(2-(1-(4-((4-fluorophenoxy)methyl)phenyl)imidazo[1,5-a]pyrazin-3-yl)pyrrolidin-1-yl)prop-2-en-1-one] as the compound, how does the IC50 read?
A: The IC50 was 10 to 100 nM.

Q: How did the IC50 turn out when `CC#CC(=O)N1CC[C@@H](c2nc(-c3ccc(Oc4cccc(OC)c4F)cc3)c3cncc(OCCOC)n23)C1` [Example 103, (R)-1-(3-(1-(4-(2-fluoro-3-methoxyphenoxy)phenyl)-5-(2-methoxyethoxy)imidazo[1,5-a]pyrazin-3-yl)pyrrolidin-1-yl)but-2-yn-1-one] was run?
A: The IC50 was 10 to 100 nM.

Q: How did the IC50 turn out when `CC#CC(=O)N1CCC[C@H]1c1nc(-c2ccc(C(=O)Nc3ccccn3)cc2)c2c(CO)nccn12` [Example 207, (S)-4-(3-(1-(but-2-ynoyl)pyrrolidin-2-yl)-8-(hydroxymethyl)imidazo [1,5-a]pyrazin-1-yl)-N-(pyridin-2-yl)benzamide] was run?
A: The IC50 was 100 to 1000 nM.

Q: Which IC50 does the source give for `CC#CC(=O)N1CCCC[C@H]1c1nc(-c2ccc(Oc3cccc(F)c3F)cc2)c2c(C)nccn12` [Example 60, (S)-1-(2-(1-(4-(2,3-difluorophenoxy)phenyl)-8-methylimidazo[1,5-a]pyrazin-3-yl)piperidin-1-yl)but-2-yn-1-one] here?
A: Its IC50 is 10 to 100 nM.

Q: For `C=CC(=O)N1CCC[C@H]1c1nc(-c2ccc(OCc3cccc(F)c3F)cc2)c2cnccn12` [Example 124, (S)-1-(2-(1-(4-((2,3-Difluorobenzyl)oxy)phenyl)imidazo[1,5-a]pyrazin-3-yl)pyrrolidin-1-yl)prop-2-en-1-one], which IC50 is on record?
A: Its IC50 is 10 to 100 nM.

Q: With `C=CC(=O)N1CCCC[C@H]1c1nc(-c2ccc(COc3ccc(F)c(F)c3)cc2)c2cnccn12` [Example 148, (S)-1-(2-(1-(4-((3,4-difluorophenoxy)methyl)phenyl)imidazo[1,5-a]pyrazin-3-yl)piperidin-1-yl)prop-2-en-1-one] as the compound, how does the IC50 read?
A: Its IC50 is 100 to 1000 nM.
